Values quoted from earlier work as cited in patent US20060211662A1, “Combination therapy for topical application in the treatment of age-related macular degeneration and ocular hypertension” (priority 2005, published 2006).

Legend:
[1] = for androgenic (virilizing) activity relative to standards: relative to standards (typically testosterone)
[2] = for anabolic activity relative to standards: relative to standards (typically testosterone)

Row | SMILES | androgenic (virilizing) activity relative to standards [1] | anabolic activity relative to standards [2] | androgenic activity as percent of methyltestosterone ([1]; relative to methyltestosterone) | anabolic activity as percent of methyltestosterone ([2]; relative to methyltestosterone)
1 | C[C@]12Cc3c[nH]nc3C[C@@H]1CC[C@@H]1[C@@H]2CC[C@@]2(C)[C@H]1CC[C@]2(C)O [stanozolol] | decreased | increased |  | 
2 | C[C@]12COC(=O)C[C@@H]1CC[C@@H]1[C@@H]2CC[C@@]2(C)[C@H]1CC[C@]2(C)O [oxandrolone, 17 alpha-methyl-17β-hydroxy-2-oxa-5 alpha-androstan-3-one] | decreased | increased | 24% | 322%
3 | C[C@]1(O)CC[C@H]2[C@@H]3CCC4=CC(=O)CC[C@]4(C)[C@@]3(F)[C@@H](O)C[C@@]21C [fluoxymesterone] | augmented | even larger increase |  | 
4 | C[C@]12CCC(=O)C[C@@H]1CC[C@@H]1[C@@H]2CC[C@]2(C)[C@@H](O)CC[C@@H]12 [dihydrotestosterone] | unchanged | enhanced |  | 
5 | C[C@]12C/C(=C/O)C(=O)C[C@@H]1CC[C@@H]1[C@@H]2CC[C@@]2(C)[C@H]1CC[C@]2(C)O [oxymetholone] | unchanged | enhanced |  | 
6 | CCC(=O)O[C@H]1CC[C@H]2[C@@H]3CCC4=CC(=O)CC[C@@H]4[C@H]3CC[C@]12C [19-nortestosterone propionate] | decreased | unchanged |  | 
